This is an account of results in PubChem BioAssay AID192 (DTP/NCI, 2004).

“And” between values parts separate entries of the source, which are not always exact repeats. Identical values can stand only once. Toxic doses and inconclusive results are not listed. Peptide text beside a SMILES is read from it.

This experiment deals with BDF1 mice, B16 melanoma ip, median survival T/C. The experiment is described as follows: NCI In Vivo Anticancer Drug Screen. Data for tumor model B16 Melanoma (intraperitoneal) in B6D2F1 (BDF1) mice. To be noted: endpoint: median survival time, higher = longer survival. The method in brief: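 Values are ratios of treated (T) to vehicle-control (C) measurements of survival or tumor size in tumor-bearing mice.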

Setting [1] is: dose: 100.0 mg/kg/injection, schedule: Q01DX009 (ip), vehicle: Klucel (hydroxypropylcellulose) (HPC).
The mark [2] stands for this setting: dose: 200.0 mg/kg/injection, schedule: Q01DX009 (ip), vehicle: Klucel (hydroxypropylcellulose) (HPC).
The mark [3] stands for this setting: dose: 50.0 mg/kg/injection, schedule: Q01DX009 (ip), vehicle: saline.
Where [4] appears, read: dose: 100.0 mg/kg/injection, schedule: Q01DX009 (ip), vehicle: saline.
[5] abbreviates: dose: 200.0 mg/kg/injection, schedule: Q01DX009 (ip), vehicle: saline.
Where [6] appears, read: dose: 400.0 mg/kg/injection, schedule: Q01DX009 (ip), vehicle: saline.
Setting [7] is: dose: 25.0 mg/kg/injection, schedule: Q01DX009 (ip), vehicle: saline.
The mark [8] stands for this setting: dose: 25.0 mg/kg/injection, schedule: Q01DX009 (ip), vehicle: Klucel (hydroxypropylcellulose) (HPC).
[9] abbreviates: dose: 50.0 mg/kg/injection, schedule: Q01DX009 (ip), vehicle: Klucel (hydroxypropylcellulose) (HPC).
The mark [10] stands for this setting: dose: 12.5 mg/kg/injection, schedule: Q01DX009 (ip), vehicle: Klucel (hydroxypropylcellulose) (HPC).

Take `Nc1ccc2nc3ccc(N)cc3[n+](-c3ccccc3)c2c1`: the T/C was 97 % of control (dose: 3.75 mg/kg/injection, schedule: Q01DX009 (ip), vehicle: saline with Tween-80); 102 % of control (dose: 7.5 mg/kg/injection, schedule: Q01DX009 (ip), vehicle: saline with Tween-80); 100 % of control (dose: 10.0 mg/kg/injection, schedule: Q04DX003 (ip), vehicle: saline with Tween-80); 102 % of control (dose: 15.0 mg/kg/injection, schedule: Q01DX009 (ip), vehicle: saline with Tween-80); 107 % of control (dose: 20.0 mg/kg/injection, schedule: Q04DX003 (ip), vehicle: saline with Tween-80); 118 % of control (dose: 30.0 mg/kg/injection, schedule: Q01DX009 (ip), vehicle: saline with Tween-80). Further, the T/C (dose: 40.0 mg/kg/injection, schedule: Q04DX003 (ip), vehicle: saline with Tween-80) was 100 % of control.
As to `CC1c2cccc(Cl)c2C(=O)c2c(Cl)cccc21`, the T/C is 102 % of control under setting [1]; 100 % of control under setting [2]; 102 % of control (dose: 400.0 mg/kg/injection, schedule: Q01DX009 (ip), vehicle: Klucel (hydroxypropylcellulose) (HPC)).
Turning to `C[C@]12CC[C@H]3[C@@H](CCC4=C[C@@H](OC5OCC(OC6OC(CO)C(O)C(O)C6O)C(O)C5O)CC[C@@]43C=O)[C@@]1(O)CCC2C1=CC(=O)OC1` (some centres not stated), the T/C reads like this: (dose: 1.25 mg/kg/injection, schedule: Q01DX009 (ip), vehicle: saline) 100 % of control; (dose: 2.5 mg/kg/injection, schedule: Q01DX009 (ip), vehicle: saline) 105 % of control; (dose: 5.0 mg/kg/injection, schedule: Q01DX009 (ip), vehicle: saline) 89 % of control.
In the case of `O=C(O)C1CC1.[Ag]`, the T/C was 114 % of control (dose: 0.78 mg/kg/injection, schedule: Q01DX009 (ip), vehicle: water); 108 % of control (dose: 1.56 mg/kg/injection, schedule: Q01DX009 (ip), vehicle: water); 108 % of control (dose: 3.12 mg/kg/injection, schedule: Q01DX009 (ip), vehicle: water); 93 % of control (dose: 6.25 mg/kg/injection, schedule: Q01DX009 (ip), vehicle: water); 91 % of control (dose: 12.5 mg/kg/injection, schedule: Q01DX009 (ip), vehicle: water).
As for `O=C(COc1ccc(Cl)cc1)Nc1ccccc1C(F)(F)F`, the T/C reads like this: (dose: 100.0 mg/kg/injection, schedule: Q04DX003 (ip), vehicle: Klucel (hydroxypropylcellulose) (HPC)) 90 % of control; (dose: 200.0 mg/kg/injection, schedule: Q04DX003 (ip), vehicle: Klucel (hydroxypropylcellulose) (HPC)) 92 % of control; (dose: 400.0 mg/kg/injection, schedule: Q04DX003 (ip), vehicle: Klucel (hydroxypropylcellulose) (HPC)) 90 % of control.
In the case of `CC(=N\O)/C(C)=N/O.CC(=N\O)/C(C)=N/O.[Ni]`, the T/C by setting is: (dose: 3.0 mg/kg/injection, schedule: Q01DX009 (ip), vehicle: saline with Tween-80) 93 % of control; (dose: 6.0 mg/kg/injection, schedule: Q01DX009 (ip), vehicle: saline with Tween-80) 87 % of control.
For `CC(NC(=O)C(C)NC(=O)C(N)CCC(=O)O)C(=O)O` (stereo not drawn) (H-Glu-Ala-Ala-OH; configuration not given here), the T/C reads like this: under setting [3], 111 % of control; under setting [4], 96 % of control; under setting [5], 105 % of control; under setting [6], 94 % of control.
On to `NC1CONC1=O` (configuration not stated), for which the T/C runs as follows: (dose: 6.25 mg/kg/injection, schedule: Q01DX009 (ip), vehicle: saline) 109 % of control; (dose: 12.5 mg/kg/injection, schedule: Q01DX009 (ip), vehicle: saline) 88 % of control; under setting [7], 109 % of control; under setting [3], 102 % of control; under setting [4], 105 % of control; under setting [5], 100 % of control. For the same compound, the T/C under setting [6] was 91 % of control.
With `CC1OC(Oc2c(-c3cc(O)c(O)c(O)c3)oc3cc(O)cc(O)c3c2=O)C(O)C(O)C1O` (configuration not stated), the T/C by setting is: (dose: 100.0 mg/kg/injection, schedule: Q01DX009 (ip), vehicle: saline with Tween-80) 112 % of control; (dose: 200.0 mg/kg/injection, schedule: Q01DX009 (ip), vehicle: saline with Tween-80) 113 % of control; (dose: 400.0 mg/kg/injection, schedule: Q01DX009 (ip), vehicle: saline with Tween-80) 90 % of control.
For `C[Si](C)(O[Si](C)(C)c1ccccc1)c1ccccc1`, the T/C under setting [7] is 123 % of control and the T/C under setting [4] was 114 % of control.
Regarding `CC(=O)C(N=Nc1ccccc1)C(C)=O`, the T/C runs as follows: under setting [8], 100 % of control; under setting [9], 113 % of control; under setting [1], 113 % of control.
With `CCOC(=O)Nc1ccccc1`, the T/C (dose: 100.0 mg/kg/injection, schedule: Q04DX003 (ip), vehicle: gum acacia) was 95 % of control and the T/C (dose: 200.0 mg/kg/injection, schedule: Q04DX003 (ip), vehicle: gum acacia) is 102 % of control.
With `CC#CCOCC1CN(c2ccccc2)C(=O)O1` (configuration not stated), the T/C was 102 % of control under setting [7]; 97 % of control under setting [3]; 102 % of control under setting [4]; 97 % of control (dose: 100.0 mg/kg/injection, schedule: Q04DX003 (ip), vehicle: saline with Tween-80); 100 % of control under setting [5]; 94 % of control (dose: 200.0 mg/kg/injection, schedule: Q04DX003 (ip), vehicle: saline with Tween-80). The T/C under setting [6] was 97 % of control and the T/C (dose: 400.0 mg/kg/injection, schedule: Q04DX003 (ip), vehicle: saline with Tween-80) was 94 % of control.
With `CN1C(=O)CN=C(c2ccccc2)c2cc(Cl)ccc21`, the T/C was 95 % of control (dose: 0.02 mg/kg/injection, schedule: Q01DX009 (ip), vehicle: Klucel (hydroxypropylcellulose) (HPC)); 100 % of control (dose: 0.03 mg/kg/injection, schedule: Q01DX009 (ip), vehicle: saline); 233 % of control (dose: 0.04 mg/kg/injection, schedule: Q01DX009 (ip), vehicle: Klucel (hydroxypropylcellulose) (HPC)); 97 % of control (dose: 0.05 mg/kg/injection, schedule: Q01DX009 (ip), vehicle: saline); 104 % of control (dose: 0.09 mg/kg/injection, schedule: Q01DX009 (ip), vehicle: Klucel (hydroxypropylcellulose) (HPC)); 91 % of control (dose: 0.1 mg/kg/injection, schedule: Q01DX009 (ip), vehicle: saline). Moreover, the T/C reads like this: (dose: 0.19 mg/kg/injection, schedule: Q01DX009 (ip), vehicle: Klucel (hydroxypropylcellulose) (HPC)) 109 % of control; (dose: 0.39 mg/kg/injection, schedule: Q01DX009 (ip), vehicle: Klucel (hydroxypropylcellulose) (HPC)) 91 % of control and 105 % of control; (dose: 5.0 micrograms/kg/injection, schedule: Q01DX009 (ip), vehicle: Klucel (hydroxypropylcellulose) (HPC)) 94 % of control; (dose: 10.0 micrograms/kg/injection, schedule: Q01DX009 (ip), vehicle: Klucel (hydroxypropylcellulose) (HPC)) 93 % of control; (dose: 20.0 micrograms/kg/injection, schedule: Q01DX009 (ip), vehicle: Klucel (hydroxypropylcellulose) (HPC)) 86 % of control; (dose: 40.0 micrograms/kg/injection, schedule: Q01DX009 (ip), vehicle: Klucel (hydroxypropylcellulose) (HPC)) 94 % of control. In addition, under “dose: 90.0 micrograms/kg/injection, schedule: Q01DX009 (ip), vehicle: Klucel (hydroxypropylcellulose) (HPC)”, the T/C was 92 % of control.
Regarding `c1ccc(CC2NCCc3c2[nH]c2ccccc32)cc1` (configuration not stated), the T/C is, setting by setting: under setting [10], 105 % of control; under setting [8], 91 % of control and 95 % of control; under setting [9], 86 % of control and 89 % of control; under setting [1], 86 % of control; under setting [2], 105 % of control.
Turning to `COc1ccccc1N1C(=O)CSC1=S`, the T/C under setting [10] was 95 % of control, the T/C under setting [8] was 105 % of control, the T/C under setting [9] is 87 % of control and the T/C under setting [1] is 105 % of control.
For `CCN1/C(=C/C(C)=C/c2sc3ccccc3[n+]2CC)Sc2ccccc21`, the T/C is 104 % of control (dose: 0.03 mg/kg/injection, schedule: Q01DX009 (ip), vehicle: saline with Tween-80); 100 % of control (dose: 0.05 mg/kg/injection, schedule: Q01DX009 (ip), vehicle: saline with Tween-80); 100 % of control (dose: 0.1 mg/kg/injection, schedule: Q01DX009 (ip), vehicle: saline with Tween-80).
